Patent publication EP0156091A1, “Beta-oxo-alpha-carbamoyl-pyrrolepropionitriles, processes for their preparation, pharmaceutical compositions comprising these compounds and their therapeutic use” (CIBA-GEIGY AG, priority 1984, dated 1985)

Key:
[1] = tested on: BCG immunisierten Adjuvans-Arthritis-Ratte; assay: Skin test (delayed hypersensitivity, PPD) in BCG-immunised adjuvant arthritis rat; assay type: in vivo; settings: 25 mg/kg/p.o.
Description: Die Erhöhung der durch die Zellen vermittelten Immunität wird in-vivo an der mit BCG-immunisierten arthritischen Ratten durch Messung der Verzögerung der Ueberempfindlichkeitsreaktion, im wesentlichen wie in Current Therapeutic Research 30, S 34 (1981) beschrieben, gemessen.
Männliche Charles River Ratten von einem Gewicht von 325-400 g werden sensibilisiert, indem man jedem Versuchstier in die rechte hintere Pfotensohle […] Mycobacterium tuberculosis (Difco), das in Freund' schem Adjuvans (Freund's incomplete adjuvant) suspendiert ist, injiziert. Die Tiere werden am 18. Tag nach der Adjuvans-Injektion mit 0,1 ml BCG-Vakzine intradermal immunisiert. Die Wirksubstanz wird peroral in einer Maisstärke-Suspension verabreicht. Die Kontrolltiere werden lediglich mit der Maisstärke behandelt. Alle Tiere werden am 29. Tag an der Haut durch intradermale Verabreichung von 10 pg PPD (purified protein derivative) getestet, um Hautreaktionen hervorzurufen. Der Durchmesser des Erythems und die Erhärtungsreaktion werden 24 Stunden nach der Antigen-Behandlung gemessen. Eine […] des Erythem-Durchmessers deutet auf die erhöhte Zellenimmunität hin.

[2] = tested on: Adjuvans-Arthritis; assay: Adjuvant arthritis test; assay type: in vivo, Ratte; settings: rat, 25 mg/kg/p.o.
Description: Der übliche Adjuvans-Arthritis-Test für die anti-arthritische Aktivität wird im wesentlichen wie in Proc. Soc. Exp. Biol. Med. 137, 506 (1971) durchgeführt.
Weiter sind die Verbindungen der Erfindung, z.B. die vorher genannten Verbindungen der Beispiele 1, 2 und 3 in dem üblichen Adjuvans- Arthritis-Test an der Ratte bei einer Dosis von 25 mg/kg/p.o. aktiv und sie gewähren einen Schutz von 47%, 58% bzw. 55Z.
Beispiel 13: Der Schutz im üblichen Adjuvans-Arthritis-Test, der im wesentlichen gemäss Proc. Soc. Exp. Biol. Med. 137, 506 (1971) durchgeführt wird, ist wie folgt: […]

[3] = tested on: durch Carrageenin hervorgerufenen Oedem; assay: Carrageenan paw oedema test; assay type: in vivo, Ratte; settings: rat
Description: Der Carrageenin-Photenödem-Test in Hinsicht auf die antiinflammatorische Wirkung wird an der Ratte wie folgt durchgeführt: • Eine Stunde nach der oralen Verabreichung der Wirksubstanz wird in die Sohle einer hinteren Pfote 0,1 ml Carrageenin (1%-ig) injiziert. In bestimmten Zeiten wird dann die Differenz der Schwellung zwischen der behandelten und der intakten gegenseitigen Pfote durch Quecksilber-Verdrängung gemessen.
Als Beispiele der Erfindung seien das ß-0xo-a-(phenylcarbamoyl)-ß-(2-pyrrolyl)-propionitril des Beispeils 1 und das ß-0xo-a-(4-chlorphenyl)-ß-(2-pyrrolyl)-propionitril des Beispiels 2 genannt, welche bei einer peroralen Dosis von 100 mg/kg, gegen die durch Carrageenin hervorgerufenen Oedem an der Ratte, 3 Stunden nach der Verabreichung, einen 46 bzw. 63%-igen Schutz gewähren. Analog ergibt das β-Oxo-α-(2,4- difluorphenylcarbamoyl)-ß-(2-pyrrolyl)-propionitril des Beispiels 3, bei einer Dosis von 25 mg/kg/p.o. einen 33%-igen Schutz.

[4] = 100 mg/kg peroral, 3 hours after administration

Row | SMILES | Wirkung im Haut-Test (immunopotenzierende Wirkung) [1] | Schutz im Adjuvans-Arthritis-Test [2] | Schutz gegen die durch Carrageenin hervorgerufenen Oedem [3, 4] | Schutz gegen die durch Carrageenin hervorgerufenen Oedem ([3]; 25 mg/kg/p.o.)
1 | N#CC(C(=O)Nc1ccc(Cl)cc1)C(=O)c1ccc[nH]1 (stereo not drawn) [Beispiel 2, β-Oxo-α-(4-chlorphenylcarbamoyl)-ß-(2-pyrrolyl)-propionitril] | signifikante Wirkung | 58% | 63% | 
2 | N#CC(C(=O)Nc1ccc(F)cc1F)C(=O)c1ccc[nH]1 (stereo not shown) [Beispiel 3, ß-0xo-a-(2,4-difluorphenylcarbamoyl)-ß-(2-pyrrolyl)-propionitril] |  |  |  | 33%
3 | N#CC(C(=O)Nc1ccccc1)C(=O)c1ccc[nH]1 (stereo not shown) [Beispiel 1, ß-Oxo-a-(phenylcarbamoyl)-ß-(2-pyrollyl)-propionitril] | signifikante Wirkung | 47% | 46% | 
